Reference: patent publication US8962244B2, “Compounds for modulating RNA binding proteins and uses therefor” (University of Massachusetts, priority 2009, dated 2015)
Where two headings read alike, the source gives them in different places.

Experiments:
MEX-5 = biological target: T1, MEX-5 (Caenorhabditis elegans, UniProt Q9XUB2); assay: Fluorescence polarization screening of MEX-5 binding to fluorescein-labeled TCR2 RNA; settings: read-out: MEX-5 score
T1 construct: The fragment of mex-5 containing the TZF domain (amino acids 236-350) was amplified; made in house; host or cells: Escherichia coli JM109
T1 sequence (Q9XUB2 236-350): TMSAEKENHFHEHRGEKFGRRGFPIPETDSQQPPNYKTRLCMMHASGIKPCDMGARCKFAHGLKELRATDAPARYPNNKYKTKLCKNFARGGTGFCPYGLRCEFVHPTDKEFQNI
Source text: The expression and purification of recombinant MEX-5 protein has previously been described in Pagano, J. M., Farley, B. M., McCoig, L. M. and Ryder, S. P. (2007) “Molecular basis of RNA recognition by the embryonic polarity determinant MEX-5;” J Biol Chem; 282, 8883-8894. The fragment of mex-5 containing the TZF domain (amino acids 236-350) was amplified from a commercially available ORFeome clone (Open Biosystems) and sub-cloned into the vector pMal-c (NEB), which encodes maltose binding protein as an N-terminal fusion. This construct is termed pMal-MEX-5 (236-350).
MEX-5 is expressed in Escherchia. coli JM109 liquid cultures grown at 37° C. Cultures were induced during mid log phase by the addition of 0.1 mM isopropyl 1-thio-β-D-galactopyranoside (IPTG) and allowed to grow for three hours. An amount of 100 μM zinc acetate (final concentration) was added at the time of induction. The pelleted cells were resuspended in lysis buffer (50 mM Tris pH 8.8, 200 mM NaCl, 2 mM DTT, EDTA free protease inhibitor tablet (Roche), 100 μM Zn(OAc)2) and lysed by sonication. The soluble protein was purified in three steps using standard chromatography methods: (1) amylose affinity (NEB), (2) Hi-TRAP-Q (GE Healthcare), and (3) Hi-TRAP-S (GE Healthcare). The Q buffer was composed of 50 mM Tris, pH 8.8, 20 mM-1500 mM NaCl, 2 mM DTT, and 100 μM Zn(OAc)2. The S buffer was composed of 50 mM MOPS, pH 6.0, 20 mM-1500 mM NaCl, 2 mM DTT, 100 μM Zn(OAc)2. The pure fractions, determined by coomassie-stained SDS-PAGE, were dialyzed into storage buffer (20 mM Tris, pH 8.0, 25 mM NaCl, 100 μM Zn(OAc)2, 2 mM DTT). The protein concentration was determined by measuring absorbance at 280 nm and the calculated extinction coefficient. The protein was stored at 50 μM concentration at 4° C.
All RNA oligonucleotides were chemically synthesized by Dharmacon or Integrated DNA Technologies. Upon arrival, each RNA was deprotected and stored according to the manufacturer's instructions. Prior to use, the RNA was resuspended in 10 mM Tris-HCl, pH 8.0, 0.1 mM EDTA, and the concentration determined by UV spectrophotometry using the calculated extinction coefficient at 260 nm based on the specific sequence. The sequence of the MEX-5 binding RNA (TCR2) is […] (SEQ ID NO:1). The POS-1 binding RNA (BMF018) is […] (SEQ ID NO:2). The MEX-3 binding RNA (SEQ 14) is […] (SEQ ID NO:3).
The RNA used for the small molecule screen was labeled at the 3′-end with fluorescein by Dharmacon during synthesis. In a few cases, follow up experiments were performed with post-synthetically labeled RNA. In this case, fluorescein 5-thiosemicarbazide (FTSC, Invitrogen) was used to 3′-end label each RNA after treatment with sodium periodate (see Reines, S. A. and Cantor, C. R. (1974) “New fluorescent hydrazide reagents for the oxidized 3′-terminus of RNA” Nucleic Acids Res. 1, 767-786). A representative 50 μl reaction consisted of 0.5 nanomoles RNA, 100 mM NaOAc, pH 5.1, and 5 nanomoles NaIO4. After the reaction was complete (90 minutes at room temperature), the sample was ethanol precipitated by adding 1 μl RNase free glycogen (Invitrogen 20 μg/μl), 1/20th volume of 5 M NaCl, and 2 volumes of 100% ice-cold ethanol. The resulting pellet was resuspended in 50 μl of 100 mM NaOAc, pH 5.1 containing 1 mM FTSC and was allowed to react overnight at 4° C. in the dark. The unreacted label was removed by ethanol precipitation with resuspension of the pellet in a small volume of TE, and purification over a Roche G-25 size exclusion spin column. The labeling efficiency is determined by calculating the ratio of fluorescein absorbance at 490 nm to RNA-fluorescein absorbance at 260 nm. Typical efficiencies are 60-80%.
The ability of MEX-5 to associate with RNA was monitored by fluorescence polarization using a victor V3 or victor V2V plate reader (Perkin Elmer) in 384-well FluoTrak microplates (Grenier). […]

POS-1 = biological target: T2, POS-1 (Caenorhabditis elegans, UniProt G5EF15); assay: Fluorescence polarization screening of POS-1 binding to fluorescein-labeled BMF018 RNA; settings: 192 μM test compound; score = polarization relative to no-drug and no-protein controls; 0.25 = 75% inhibition; lowest score = greatest inhibition; read-out: POS-1 score
T2 construct: 6-his tag (N); made in house; host or cells: E. coli BL21 (DE3) Gold
T2 sequence (G5EF15 80-180): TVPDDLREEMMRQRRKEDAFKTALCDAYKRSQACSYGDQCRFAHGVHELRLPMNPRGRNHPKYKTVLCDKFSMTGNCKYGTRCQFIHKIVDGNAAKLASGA

[1] = 192 μM test compound, score = polarization relative to no-drug and no-protein controls, 0.25 = 75% inhibition, lowest score = greatest inhibition

SMILES | remaining activity at 192 µM (MEX-5; [1]) | further results
COc1cc(-c2n[nH]c(=S)[nH]2)cc(OC)c1OC [DU] |  | remaining activity at 192 µM (POS-1): 18%
COc1ccc(S(=O)(=O)Nc2ccc(C)cc2NS(=O)(=O)c2ccc(OC)cc2)cc1 [DI] |  | remaining activity at 192 µM (POS-1): 11.9%
O=S(=O)(Nc1ccc(S(=O)(=O)Nc2nccs2)cc1)c1ccc(Br)cc1 [CZ] |  | remaining activity at 192 µM (POS-1): 4.89%
CCC(=O)NC(c1ccc(OC)c(OC)c1)c1cc([N+](=O)[O-])c2cccnc2c1O (stereo not shown) [AG] | 8.62% | 
Cc1cc([N+](=O)[O-])ccc1NC(=O)c1cnccn1 [BG] | 17.2% | 
CCOc1cc(/C=C2\C(=O)N(c3ccc(C(=O)O)cc3)N=C2C)ccc1OC(=O)c1cccs1 [EE] |  | remaining activity at 192 µM (POS-1): 22.5%
CCCCC(=O)NC(c1ccccc1Cl)c1cc([N+](=O)[O-])c2cccnc2c1O (stereo not shown) [ET] |  | remaining activity at 192 µM (POS-1): 26.5%
CCCC(=O)NC(c1ccc(Cl)cc1)c1cc([N+](=O)[O-])c2cccnc2c1O (stereo not shown) [EU] |  | remaining activity at 192 µM (POS-1): 26.6%
CCc1ccc(-n2c(-c3cc(Cl)ccc3OC)n[nH]c2=S)cc1 [CG] | 23% | 
O=S(=O)(NCc1nc2ccccc2[nH]1)c1ccc(Cl)cc1 [EC] |  | remaining activity at 192 µM (POS-1): 21.7%
Cc1ccccc1OCc1nnc(S)n1C [CN] | 23.9% | 
COC(=O)c1c(NC(=O)CCC(=O)O)sc2c1CCC(C(C)(C)C)C2 (stereo not shown) [DM] |  | remaining activity at 192 µM (POS-1): 14.4%
Sc1nnc(COc2cccc(Br)c2)n1-c1ccccc1 [BB] | 15.4% | 
CCCCn1c(NC(=S)Nc2ccccc2)nc2ccccc21 [AW] | 14.1% | 
Cc1ccc(-c2cc(C(=O)Nc3ccccc3Cl)c3ccccc3n2)o1 [BW] | 21.2% | 
O=C1NN(c2ccc(Cl)c(Cl)c2)C(=O)/C1=C/c1cccc(OC(=O)c2cccs2)c1 [EG] |  | remaining activity at 192 µM (POS-1): 22.9%
COc1ccc(N2CC(C(=O)Nc3ccc(S(=O)(=O)Nc4nccs4)cc3)CC2=O)cc1 (stereo not shown) [DA] |  | remaining activity at 192 µM (POS-1): 6.51%
CCOC(=O)C1=C(C)Nc2[nH]c(=O)[nH]c(=O)c2C1c1ccccc1[N+](=O)[O-] (stereo not shown) [EF] |  | remaining activity at 192 µM (POS-1): 22.8%
CCOC(=O)c1ccc(N2NC(=O)/C(=C/c3ccc(OC(=O)c4ccco4)c(OC)c3)C2=O)cc1 [DR] |  | remaining activity at 192 µM (POS-1): 17.2%

SMILES | remaining activity at 192 µM (MEX-5; [1]) | further results
CCCCC(=O)Nc1cccc(NC(=S)NC(=O)C(C)C)c1 [BT] | 20.2% | 
Cc1cc(C)nc(NS(=O)(=O)c2ccc(Nc3nc(-c4ccc(O)c(O)c4)cs3)cc2)n1 [AC] | 7.58% | 
Sc1nnc(SCc2ccccc2Cl)s1 [CT] | 25.2% | 
O=C(NC(=S)N(Cc1ccccc1)Cc1ccccc1)c1ccc([N+](=O)[O-])cc1 [CK] | 23.4% | 
Oc1ccccc1-c1n[nH]c(=S)n1-c1ccccc1 [BM] | 18.8% | 
Sc1nnc(CCc2ccccc2)n1-c1ccccc1 [BD] | 15.5% | 
Cc1ccc(S(=O)(=O)Nc2nc(N3C(=O)c4ccccc4C3=O)n(-c3ccccc3)n2)cc1 [AT] | 13.2% | 
Sc1nnc(-c2cccs2)n1CCc1ccccc1 [BQ] | 19.5% | 
Cc1ccccc1Cn1c(S)nc2ccccc21 [AX] | 14.1% | 
O=[N+]([O-])c1cc(CN2CCOCC2)c2cccnc2c1O [U] | 6.21% | 
S=C(Nc1ccccc1)Nc1nc2ccccc2n1Cc1ccccc1 [AR] | 12.9% | 
CC(=O)Oc1ccc2c(C)cc(=O)oc2c1OC(C)=O [CQ] |  | remaining activity at 192 µM (MEX-5): 24.5%
O=C(CSc1nnc2c(n1)[nH]c1ccccc12)Nc1ccc(S(=O)(=O)Nc2nccs2)cc1 [CI] | 23.2% | 
O=C(Nc1nc2n(n1)C(c1ccccc1)C=C(c1ccccc1)N2)c1ccc([N+](=O)[O-])cc1 (stereo not shown) [BH] | 17.6% | 
Fc1ccc(-n2c(S)nnc2-c2cccs2)cc1 [CL] | 23.5% | 
CCOC(=O)C(=O)Nc1nnc(C(C)(C)C)s1 [CR] | 24.7% | 
CCOC(=O)Cc1nnc(NC(=O)c2ncn[nH]2)s1 [N] | 2.09% | 
COc1ccc(OCc2nnc(S)n2-c2ccccc2)cc1 [CE] | 22.7% | 
CC(C)Oc1ccc(Cc2nnc(S)n2-c2ccccc2)cc1Cl [CM] | 23.6% | 

The next lines start with results.

remaining activity at 192 µM (MEX-5; [1]) | SMILES | further results
16.1% | COc1ccc(C(=O)Nc2nc(N3C(=O)c4ccccc4C3=O)n(-c3ccccc3)n2)cc1 [BE] | 
25.5% | CC(=O)Nc1nc(N2C(=O)c3ccccc3C2=O)n(-c2ccccc2)n1 [CV] | 
21.2% | O=[N+]([O-])c1cc(CN2CCC(c3ccccc3)C2)c(O)c2ncccc12 (stereo not shown) [BX] | 
13.1% | Cc1ccc(-n2c(-c3ccco3)n[nH]c2=S)cc1 [AS] | 
10.5% | CCOC(=O)c1c[nH]c2nc3ccccc3n2c1=O [AM] | 
12.2% | O=C(Nc1nc2ccccc2s1)c1cccc(C(=O)Nc2nc3ccccc3s2)n1 [AP] | 
25.3% | CCc1cc(-c2n[nH]c(C)c2-c2nc3ccccc3s2)c(O)cc1OC [CU] | 
22.9% | COc1cc(-c2nnc(S)n2-c2ccc(C)cc2C)cc(OC)c1OC [CF] | 
6.26% | O=S(=O)(Nc1cc(Cl)c(O)c2ccccc12)c1cccs1 [V] | 
3.51% | CCOC(=O)C(=O)Nc1nnc(Cc2ccc(Cl)cc2)s1 [Q] | 
22.5% | Cc1ccc(C(=O)Nc2nc(-c3ccccc3)c(-c3ccccc3)o2)cc1 [CC] | 
6.69% | O=[N+]([O-])c1cccc(S(=O)(=O)Nc2cc(Cl)c(O)c3ccccc23)c1 [X] | 
10.5% | Cn1c(-c2cc(Br)ccc2O)n[nH]c1=S [AN] | 
18.9% | COc1ccc(C(=O)NC(=S)Nc2cc(C)cc(C)c2)cc1Cl [BN] | 
23.4% | O=c1[nH]c(=S)[nH]c2sc3c(c12)CCCCCCCCCC3 [CJ] | 
15.5% | COc1ccc(OCCn2c(NC(C)=O)nc3ccccc32)cc1 [BC] | 
25.2% | C=CCn1c(S)nnc1CCc1ccc(OC(C)C)cc1 [CS] | 
10.2% | CCCc1nnc(NC(=O)c2cccc(C(=O)Nc3nnc(CCC)s3)n2)s1 [AK] | 
9.23% | O=[N+]([O-])c1cccc(S(=O)(=O)Nc2cc(Br)c(O)c3ccccc23)c1 [AJ] | 
24.1% | O=C(NC(=S)N(Cc1ccccc1)Cc1ccccc1)c1ccc(Br)o1 [CP] | 
3.52% | Sc1nnc(-c2cccs2)n1-c1ccccc1 [R] | 
21.4% | CCOC(=O)N1CCN(C(=S)Nc2ccc3nc(-c4ccccn4)c(-c4ccccn4)nc3c2)CC1 [BZ] | 
23.1% | CCCn1c(NC(=S)Nc2ccccc2)nc2ccccc21 [CH] | 
